This test addresses T1, rat CB2 (Rattus norvegicus, UniProt Q9QZN9).
T1 sequence (Q9QZN9 1-360): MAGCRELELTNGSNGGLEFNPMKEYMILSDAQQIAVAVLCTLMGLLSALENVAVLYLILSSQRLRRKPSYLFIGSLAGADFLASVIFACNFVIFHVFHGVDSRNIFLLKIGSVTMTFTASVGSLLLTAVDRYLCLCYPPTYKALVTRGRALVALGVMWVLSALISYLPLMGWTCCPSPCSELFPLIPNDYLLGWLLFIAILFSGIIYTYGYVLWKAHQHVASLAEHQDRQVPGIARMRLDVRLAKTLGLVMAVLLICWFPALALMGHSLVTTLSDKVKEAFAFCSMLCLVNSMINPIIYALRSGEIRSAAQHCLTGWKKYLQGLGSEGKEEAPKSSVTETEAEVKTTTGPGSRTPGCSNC
Kind of test: [3H]CP55,940 radioligand competition binding, membranes of HEK/GIRK cells expressing rat CB2. The arrangement: expressed in transfected cells; host or cells: HEK293 cells stably co-expressing GIRK1/2 channels. An excerpt:
Agonists that bind to the receptor at the site occupied by the endogenous ligand (2-AG in this case) are considered orthosteric agonists. It is also possible for an agonist to bind and activate a receptor via a site other than the orthosteric site; these ligands are classified as allosteric agonists. To characterize the nature of the agonist activity of mycophenolate mofetil, we tested its ability to bind to the receptor in equilibrium binding assays using membranes harvested from cells expressing rCB2 using the radioligand [^3H]CP55,940 [40, 60]. CP55,940 has an affinity for both CB1 and CB2 receptors in the low nM range and is reported to bind to the site occupied by 2-AG [61].
Competition binding concentration–response curves were obtained in the presence of 0.5 nM [^3H]CP55,940 using membranes harvested from HEK/GIRK cells expressing rCB2. Data represent the mean ± SEM of three independent experiments run in triplicate. Data are plotted as a percentage of specific [^3H]CP55,940 binding. Non-specific binding was determined in the presence of 10 µM CP55,940.
Membranes were made from HEK/GIRK cells stably expressing rat CB2. Radioligand competition binding assays were performed as previously described, with minor modifications. In brief, compounds were serially diluted into assay buffer with 0.1% bovine serum albumin (BSA) and added to each well of a 96-well plate, along with 20 μg/well cell membrane and approximately 500 pM [^3H]-CP55,940 (specific activity = 104 Ci/mmol, PerkinElmer, Waltham, MA, USA). Following a 3-h incubation period on a shaker at room temperature, membrane-bound ligand was separated from free ligand by filtration through glass fiber 96-well filter plates (Unifilter-96, GF/B; PerkinElmer, Waltham, MA, USA). Forty microliters of scintillation fluid were added to each well, and membrane-bound radioactivity was determined by scintillation counting (Microbeta2; Revvity, Waltham, MA, USA). Nonspecific binding was determined using 10 μM of cold CP55,940.

pKi: −log10 of the molar value.

Regarding `CCCCC/C=C\C/C=C\C/C=C\C/C=C\CCCC(=O)OC(CO)CO` [2-AG, 2-Arachidonoylglycerol], the pKi was 5.46.

As to `COc1ccc(C(=O)c2c(C)n(CCN3CCOCC3)c3cc(I)ccc23)cc1` [AM630], where the note is “0.5 nM [3H]CP55,940, equilibrium”, the “rCB2 Binding Affinity pKi ± SEM” value turned out to be 7.61 ± 0.29.

(Values after publication PMC12112332, “Characterization of Novel and Known Activators of Cannabinoid Receptor Subtype 2 Reveals Mixed Pharmacology That Differentiates Mycophenolate Mofetil and GW-842,166X from MDA7” (International Journal of Molecular Sciences, 2025).)
